Consider 15 compounds from patent US10077261B2, “Imidazolin-5-one derivative useful as FASN inhibitors for the treatment of cancer” (Janssen Pharmaceutica NV, priority 2012, dated 2018).

Assay [1] has as its target Fatty Acid Synthase Keto-reductase Domain (FASN KR) (Homo sapiens, UniProt P49327). As to the kind of experiment: Fatty Acid Synthase keto-reductase domain (FASN KR) inhibition, NADPH oxidation at 340 nm.
Experimental: After 20 minutes incubation at room temperature the plate was measured again (T2).
The decrease in absorbance was calculated as (Absorbance before incubation T1)−(Absorbance following incubation T2).
A plot of Controlmin versus test compound concentration was fitted to a 4-parameter logistic curve using a non-linear least squares regression method.
Assay [2] has as its target T1, hFASN enzyme (full length) (Homo sapiens, UniProt P49327).
T1 construct: 10 μL hFASN enzyme (full length, 300 ng, purified in house); made in house
Kind of assay: Fatty Acid Synthase (FASN) inhibition scintillation proximity assay. In kind it is biochemical. The following applies: for inhibition at 10 µM: read-out: Human FASN % inhibition @ 10 μM, 10 μM test compound; for IC50: read-out: Human FASN pIC50 (converted). The method, boiled down: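 Read-out relies on hydrophobic ³H-palmitate product, formed from ³H-acetyl-CoA and malonyl-CoA, binding streptavidin imaging beads, measured at 610±20 nm after at least 24 h. Full-length enzyme (300 ng) in phosphate buffer pH 7.5 with DTT; eight compound concentrations, 0.01–30 μM.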
(In general: In a scintillation proximity assay essentially only radioactivity close to the scintillant gives light.)

The test system of assay [3] is A2780 ovarian cells. Kind of assay: A2780 ovarian cell proliferation assay in lipid reduced medium, with palmitate (MTT). It counts as cell-based. The following applies: Homo sapiens, A2780, 96 h; read-out: pIC50 A2780 Ovarian Cell, With Palmitate (converted). The method, boiled down:
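In this palmitate-supplemented format, compound dilutions (30 μM down to 0.01 μM) are added to cells in lipid-reduced serum with 25 μM palmitate, 0.2% fatty-acid-free BSA and 0.25% ethanol. After four days (96 h) MTT absorbance at 544 nm is recorded and fitted by minimum sum of squares.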

Assay [4] relates to LNCaP-Vancouver prostate cells. As to the kind of experiment: In vitro LNCaP Vancouver prostate cell proliferation assay in lipid reduced medium. It counts as cell-based. The conditions noted are these: read-out: pIC50 LNCaP_Vancouver prostate cell (converted).
The subject of assay [5] is A2780 ovarian cells. As to the kind of experiment: A2780 ovarian cell proliferation assay in lipid reduced medium, without palmitate (MTT). In kind it is cell-based. The following applies: Homo sapiens, A2780, 96 h; read-out: pIC50 A2780 Ovarian Cell, Without Palmitate (converted).
In assay [6] the test system is PC-3M-Luc-C6 prostate cells. Kind of assay: In vitro PC-3M-Luc-C6 prostate cell proliferation assay in lipid reduced medium. The following applies: 96 h, read-out: pIC50 PC-3M-Luc-C6 prostate cell (converted). It counts as cell-based.

T1 sequence (P49327 whole entry): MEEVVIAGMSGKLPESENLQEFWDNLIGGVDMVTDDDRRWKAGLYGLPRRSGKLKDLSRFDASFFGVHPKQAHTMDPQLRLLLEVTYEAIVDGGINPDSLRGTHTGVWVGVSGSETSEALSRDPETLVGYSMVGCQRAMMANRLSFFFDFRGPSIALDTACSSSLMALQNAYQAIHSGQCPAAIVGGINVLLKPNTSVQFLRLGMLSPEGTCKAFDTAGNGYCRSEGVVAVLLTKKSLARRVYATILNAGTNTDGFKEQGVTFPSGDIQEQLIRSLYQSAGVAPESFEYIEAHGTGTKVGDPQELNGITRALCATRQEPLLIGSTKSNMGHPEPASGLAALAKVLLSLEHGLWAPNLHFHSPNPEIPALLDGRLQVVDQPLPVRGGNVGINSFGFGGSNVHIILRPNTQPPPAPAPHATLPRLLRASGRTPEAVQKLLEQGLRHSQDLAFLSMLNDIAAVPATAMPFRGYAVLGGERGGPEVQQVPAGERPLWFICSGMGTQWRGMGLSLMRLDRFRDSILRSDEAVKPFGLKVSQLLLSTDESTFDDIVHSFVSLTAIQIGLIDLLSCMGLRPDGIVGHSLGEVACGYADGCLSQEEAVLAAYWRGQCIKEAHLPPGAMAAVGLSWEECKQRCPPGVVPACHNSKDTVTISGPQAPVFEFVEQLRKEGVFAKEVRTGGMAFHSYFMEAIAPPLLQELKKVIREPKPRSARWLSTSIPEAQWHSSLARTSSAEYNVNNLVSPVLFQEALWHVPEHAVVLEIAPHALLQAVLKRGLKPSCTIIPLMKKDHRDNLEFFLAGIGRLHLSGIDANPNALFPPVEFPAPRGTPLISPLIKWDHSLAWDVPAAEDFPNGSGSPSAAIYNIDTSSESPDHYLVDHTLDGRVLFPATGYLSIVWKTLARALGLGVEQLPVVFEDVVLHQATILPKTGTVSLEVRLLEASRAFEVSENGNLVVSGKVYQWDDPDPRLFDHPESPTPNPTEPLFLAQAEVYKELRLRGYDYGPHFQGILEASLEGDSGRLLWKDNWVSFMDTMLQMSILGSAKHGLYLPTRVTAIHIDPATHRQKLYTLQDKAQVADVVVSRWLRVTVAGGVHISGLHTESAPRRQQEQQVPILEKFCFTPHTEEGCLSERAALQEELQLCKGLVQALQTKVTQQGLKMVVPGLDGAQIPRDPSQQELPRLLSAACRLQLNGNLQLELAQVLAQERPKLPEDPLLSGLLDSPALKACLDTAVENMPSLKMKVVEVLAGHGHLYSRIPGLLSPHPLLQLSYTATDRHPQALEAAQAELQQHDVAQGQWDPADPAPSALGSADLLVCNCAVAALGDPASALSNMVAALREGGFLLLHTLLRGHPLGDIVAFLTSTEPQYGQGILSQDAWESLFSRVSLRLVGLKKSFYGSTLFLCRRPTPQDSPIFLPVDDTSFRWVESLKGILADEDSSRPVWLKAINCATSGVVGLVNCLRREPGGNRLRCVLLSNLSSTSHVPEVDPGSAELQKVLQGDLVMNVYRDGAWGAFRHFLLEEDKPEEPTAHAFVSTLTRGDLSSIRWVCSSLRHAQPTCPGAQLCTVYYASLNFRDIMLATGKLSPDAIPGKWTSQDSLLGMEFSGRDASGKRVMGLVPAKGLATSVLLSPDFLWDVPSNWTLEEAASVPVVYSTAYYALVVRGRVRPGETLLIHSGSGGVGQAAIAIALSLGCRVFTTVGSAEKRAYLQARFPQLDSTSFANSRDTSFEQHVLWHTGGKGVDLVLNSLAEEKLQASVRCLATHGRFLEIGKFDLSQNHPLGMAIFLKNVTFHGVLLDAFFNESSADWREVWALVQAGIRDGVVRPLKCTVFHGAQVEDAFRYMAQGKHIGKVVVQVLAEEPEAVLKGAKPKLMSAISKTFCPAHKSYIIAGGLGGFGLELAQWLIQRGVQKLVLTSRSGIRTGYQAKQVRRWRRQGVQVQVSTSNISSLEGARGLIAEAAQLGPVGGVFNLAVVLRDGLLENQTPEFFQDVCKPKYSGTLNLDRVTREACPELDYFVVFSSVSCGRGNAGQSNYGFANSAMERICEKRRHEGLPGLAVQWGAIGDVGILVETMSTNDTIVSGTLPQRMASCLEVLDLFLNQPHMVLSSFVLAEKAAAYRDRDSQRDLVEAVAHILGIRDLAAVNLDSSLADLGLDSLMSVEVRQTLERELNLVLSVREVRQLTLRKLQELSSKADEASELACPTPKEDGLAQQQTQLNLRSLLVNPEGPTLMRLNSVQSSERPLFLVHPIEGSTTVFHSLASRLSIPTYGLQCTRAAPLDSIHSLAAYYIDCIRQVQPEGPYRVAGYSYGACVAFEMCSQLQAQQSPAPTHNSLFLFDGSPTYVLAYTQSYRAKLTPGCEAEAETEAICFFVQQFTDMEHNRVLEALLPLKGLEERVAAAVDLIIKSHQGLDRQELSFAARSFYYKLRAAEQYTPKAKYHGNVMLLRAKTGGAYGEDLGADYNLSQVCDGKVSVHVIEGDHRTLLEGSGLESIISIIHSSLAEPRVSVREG
Chain of Fatty Acid Synthase Keto-reductase Domain (FASN KR) (P49327 whole entry, the tested form may be a part): as the sequence (P49327 whole entry) above

By inhibition is commonly meant the relative decrease from the control value, in per cent. As for `O=C(C1CC1)N1CC[C@@H](CN2C(=O)C3(CC3)N=C2c2ccc(-c3ccc4cncnc4c3)cc2F)C1` [compound 258, (R)-6-((1-(cyclopropanecarbonyl)pyrrolidin-3-yl)methyl)-5-(2-fluoro-4-(quinazolin-7-yl)phenyl)-4,6-diazaspiro[2.4]hept-4-en-7-one], the IC50 in assay [1] is 83.2 nM; in assay [2], 72.4 nM; with A2780 ovarian cells [3], greater than 10000 nM; in assay [4], 31.6 nM; in the assay with A2780 ovarian cells [5], roughly 11.2 nM; in assay [6], 14.5 nM. Also, the inhibition at 10 µM in assay [2] was 94%.

In the case of `O=C(C1CC1)N1CC[C@@H](CN2C(=O)C3(CC3)N=C2c2ccc(-c3ccc4cc(F)ccc4c3)cc2F)C1` [compound 259, (R)-6-((1-(cyclopropanecarbonyl)pyrrolidin-3-yl)methyl)-5-(2-fluoro-4-(6-fluoronaphthalen-2-yl)phenyl)-4,6-diazaspiro[2.4]hept-4-en-7-one], the IC50 was 29.5 nM in assay [1]; 25.1 nM in assay [2]; greater than 10000 nM in the assay on A2780 ovarian cells [3]; 447 nM in assay [4]; 105 nM in the assay on A2780 ovarian cells [5]; 67.6 nM in assay [6]. Besides, in assay [2], the inhibition at 10 µM is 95%.

`O=C(C1CC1)N1CC[C@@H](CN2C(=O)C3(CC3)N=C2c2ccc(-c3ccc4cccc(F)c4c3)cc2F)C1` [compound 260, (R)-6-((1-(cyclopropanecarbonyl)pyrrolidin-3-yl)methyl)-5-(2-fluoro-4-(8-fluoronaphthalen-2-yl)phenyl)-4,6-diazaspiro[2.4]hept-4-en-7-one]: the IC50 is 37.2 nM in assay [1]; 16.2 nM in assay [2]; greater than 10000 nM with A2780 ovarian cells [3]; 85.1 nM in assay [4]; roughly 70.8 nM in the assay on A2780 ovarian cells [5]; 37.2 nM in assay [6]. Also, in assay [2], the inhibition at 10 µM came to 101%.

Regarding `O=C(C1CC1)N1CC[C@@H](CN2C(=O)C3(CC3)N=C2c2ccc(-c3c[nH]c4ccccc34)cc2F)C1` [compound 261, (R)-6-((1-(cyclopropanecarbonyl)pyrrolidin-3-yl)methyl)-5-(2-fluoro-4-(1H-indol-3-yl)phenyl)-4,6-diazaspiro[2.4]hept-4-en-7-one], the IC50 is 89.1 nM in assay [1]; 55 nM in assay [2]; greater than 10000 nM in the assay with A2780 ovarian cells [3]; roughly 102 nM in assay [4]; 6.61 nM in the assay with A2780 ovarian cells [5]; 21.4 nM in assay [6]. For the same compound, in assay [2], the inhibition at 10 µM worked out at 98%.

For `Cn1ncc2cc(-c3ccc(C4=NC5(CC5)C(=O)N4CC4CN(C(=O)C5(O)CC5)C4)c(Cl)c3)ccc21` [compound 264, 5-(2-chloro-4-(1-methyl-1H-indazol-5-yl)phenyl)-6-((1-(1-hydroxycyclopropanecarbonyl)azetidin-3-yl)methyl)-4,6-diazaspiro[2.4]hept-4-en-7-one], the IC50 is 158 nM in assay [1]; 37.2 nM in assay [2]; greater than 10000 nM with A2780 ovarian cells [3]; 501 nM in assay [4]; 74.1 nM in the assay on A2780 ovarian cells [5]; 44.7 nM in assay [6]. In addition, the inhibition at 10 µM in assay [2] is 108%.

Regarding `Cc1cc(-c2ccc3c(cnn3C)c2)ccc1C1=NC2(CC2)C(=O)N1C[C@@H]1CCN(C(=O)C2(C)CC2)C1` [compound 265, (R)-5-(2-methyl-4-(1-methyl-1H-indazol-5-yl)phenyl)-6-((1-(1-methylcyclopropanecarbonyl)pyrrolidin-3-yl)methyl)-4,6-diazaspiro[2.4]hept-4-en-7-one], the IC50 in assay [1] was roughly 53.7 nM; in assay [2] it was 45.7 nM; with A2780 ovarian cells [3] it was greater than 10000 nM; in assay [4], 13.8 nM; with A2780 ovarian cells [5] it was roughly 2.88 nM; in assay [6] it was roughly 7.08 nM. Besides, the inhibition at 10 µM in assay [2] was 103%.

For `Cc1cc(-c2ccc3cc(F)ccc3c2)ccc1C1=NC2(CC2)C(=O)N1C[C@@H]1CCN(C(=O)C2(C)CC2)C1` [compound 266, (R)-5-(4-(6-fluoronaaphthalen-2-yl)-2-methylphenyl)-6-((1-(1-methylcyclopropanecarbonyl)pyrrolidin-3-yl)methyl)-4,6-diazaspiro[2.4]hept-4-en-7-one], the IC50 in assay [1] is 46.8 nM; in assay [2] it was 33.9 nM; in the assay with A2780 ovarian cells [3] it was 1350 nM; in assay [4], 15.1 nM; with A2780 ovarian cells [5], roughly 2.19 nM; in assay [6], 4.68 nM. The inhibition at 10 µM in assay [2] was found to be 102%.

For `Cc1cc(-c2ccc(-c3cnn(C)c3)cc2)ccc1C1=NC2(CC2)C(=O)N1C[C@@H]1CCN(C(=O)C2(C)CC2)C1` [compound 267], the IC50 in assay [1] is 51.3 nM; in assay [2], 26.3 nM; in the assay with A2780 ovarian cells [3], greater than 10000 nM; in assay [4], 12.3 nM; with A2780 ovarian cells [5] it was 1.7 nM; in assay [6] it was roughly 3.09 nM. Besides, in assay [2], the inhibition at 10 µM stood at 97%.

Take `N#Cc1ccc2nc(-c3ccc(C4=NC5(CC5)C(=O)N4CC4CN(C(=O)C5CC5)C4)c(F)c3)sc2c1` [compound 268, 2-(4-(6-((1-(cyclopropanecarbonyl)azetidin-3-yl)methyl)-7-oxo-4,6-diazaspiro[2.4]hept-4-en-5-yl)-3-fluorophenyl)benzo[d]thiazole-6-carbonitrile]: the IC50 in assay [1] is 69.2 nM; in assay [2], 55 nM; with A2780 ovarian cells [3], greater than 10000 nM; in assay [4], 288 nM; with A2780 ovarian cells [5], roughly 44.7 nM; in assay [6], 58.9 nM. Also, the inhibition at 10 µM in assay [2] amounted to 104%.

On to `Cc1cc(-c2ccc3cc(C#N)ccc3c2)ccc1C1=NC2(CC2)C(=O)N1CC1CN(C(=O)C2(C)CC2)C1` [compound 269, 6-(3-methyl-4-(6-((1-(1-methylcyclopropanecarbbonyl)azetidin-3-yl)methyl)-7-oxo-4,6-diazaspiro[2.4]hept-4-en-5-yl)phenyl)-2-naphthonitrile], for which the IC50 in assay [1] is 66.1 nM; in assay [2], 22.4 nM; in the assay on A2780 ovarian cells [3], 4270 nM; in assay [4] it was 28.2 nM; with A2780 ovarian cells [5] it was roughly 3.72 nM; in assay [6], roughly 8.32 nM. Also, the inhibition at 10 µM in assay [2] was found to be 102%.

As to `Cc1ccc2nc(-c3ccc(C4=NC5(CC5)C(=O)N4CC4CN(C(=O)C5CC5)C4)c(F)c3)sc2c1` [compound 270, 6-((1-(cyclopropanecarbonyl)azetidin-3-yl)methyl)-5-(2-fluoro-4-(6-methylbenzo[d]thiazol-2-yl)phenyl)-4,6-diazaspiro[2.4]hept-4-en-7-one], the IC50 in assay [1] was 166 nM; in assay [2], 35.5 nM; with A2780 ovarian cells [3] it was roughly 5500 nM; in assay [4] it was 195 nM; in the assay with A2780 ovarian cells [5], roughly 27.5 nM; in assay [6] it was 34.7 nM. In addition, in assay [2], the inhibition at 10 µM came to 102%.

In the case of `O=C(C1CC1)N1CC(CN2C(=O)C3(CC3)N=C2c2ccc(-c3nc4ccc(F)cc4s3)cc2F)C1` [compound 271, 6-((1-(cyclopropanecarbonyl)azetidin-3-yl)methyl)-5-(2-fluoro-4-(6-fluorobenzo[d]thiazol-2-yl)phenyl)-4,6-diazaspiro[2.4]hept-4-en-7-one], the IC50 in assay [1] was 166 nM; in assay [2], 56.2 nM; in the assay on A2780 ovarian cells [3] it was greater than 10000 nM; in assay [4], 417 nM; in the assay with A2780 ovarian cells [5] it was roughly 74.1 nM; in assay [6], 97.7 nM. For the same compound, the inhibition at 10 µM in assay [2] amounted to 104%.

For the compound `Cc1cc(-c2ccc3cc(C#N)ccc3c2)ccc1C1=NC2(CC2)C(=O)N1CC1CN(C(=O)C2(O)CC2)C1` [compound 272, 6-(4-(6-((1-(1-hydroxycyclopropanecarbonyl)azetidin-3-yl)methyl)-7-oxo-4,6-diazaspiro[2.4]hept-4-en-5-yl)-3-methylphenyl)-2-naphthonitrile], the IC50 in assay [1] is roughly 38.9 nM; in assay [2] it was 18.6 nM; with A2780 ovarian cells [3] it was greater than 10000 nM; in assay [4] it was 49 nM; with A2780 ovarian cells [5], roughly 7.24 nM; in assay [6], 10.7 nM. Also, the inhibition at 10 µM in assay [2] was 105%.

For `Cc1cc(-c2ccc3cc(C#N)ccc3c2)ccc1C1=NC2(CC2)C(=O)N1CC1CN(C(=O)C2(F)CC2)C1` [compound 273, 6-(4-(6-((1-(1-fluorocyclopropanecarbonyl)azetidin-3-yl)methyl)-7-oxo-4,6-diazaspiro[2.4]hept-4-en-5-yl)-3-methylphenyl)-2-naphthonitrile], the IC50 in assay [1] is 145 nM; in assay [2] it was 42.7 nM; in the assay on A2780 ovarian cells [3], 7940 nM; in assay [4] it was 355 nM; in the assay on A2780 ovarian cells [5], roughly 20.9 nM; in assay [6] it was 67.6 nM. The inhibition at 10 µM in assay [2] turned out to be 102%.

As for `O=C(C1CC1)N1CC(CN2C(=O)C3(CC3)N=C2c2ccc(-c3nc4ccc(Cl)cc4s3)cc2F)C1` [compound 274, 5-(4-(6-chlorobenzo[d]thiazol-2-yl)-2-fluorophenyl)-6-((1-(cyclopropanecarbonyl)azetidin-3-yl)methyl)-4,6-diazaspiro[2.4]hept-4-en-7-one], the IC50 in assay [1] is 100 nM; in assay [2], 50.1 nM; with A2780 ovarian cells [3], 7240 nM; in assay [4], 339 nM; in the assay on A2780 ovarian cells [5], roughly 24 nM; in assay [6], 46.8 nM. Further, the inhibition at 10 µM in assay [2] worked out at 101%.
